Data reported in patent US6953813B1, “2-Aminotetralin derivatives for the therapy of glaucoma” (Chiesi Farmaceutici S.p.A., priority 1999, dated 2005).

Key:
[1] = pKa; type: physicochemical
Text: The higher apparent partition coefficient would be more favorable for ophthalmic absorption. However, an acid aqueous solution should be used as a vehicle for eyedrop administration due to the better chemical stability of CHF 1035 in such pH range. The theoretical log Papp of the corresponding not esterified derivative turned out to be −0.9 at pH 7.4.

[2] = system: normotensive Dutch Belted rabbits; experiment: Intraocular pressure (IOP) after single dose in normotensive rabbits; type: in vivo, rabbit
Experimental: Water (pH 4.5, made isotonic with sodium chloride), was selected as vehicle for the IOP-studies.
Five concentrations (0.01, 0.05, 0.2, 0.5 and 1.0% w/v) of CHF 1035 were studied. Brimonidine (0.2% w/v) was used as a positive, and vehicle (water pH 4.5) as a negative control.
(§1) The experimental animals used were normotensive Dutch Belted rabbits of either gender (n=6). A single drop (25 μl) of the test solution was instilled unilaterally into the left eye (treated eye). IOP of the rabbits (treated and untreated eyes) was measured at 1 and 0 h before, and at 0.5, 1, 2, 3, 4, 5, 6 and 7 h after topical eyedrop administration. IOP at the time of eyedrop administration (0 h) was used as a baseline value. IOP was measured using a BioRad Pneumatonometer. More detailed description of the IOP measurement procedure can be found in Pharm. Res. 14, 1738-1743, 1997 and Curr. Eye Res. 14, 791-797, 1995. All the studies were set up using a randomized crossover design. At least 72 h of wash-out time was allowed for each rabbit between dosings. The irritation caused by an instilled eyedrop were evaluated by recording the extent of eyelid closure after topical eyedrop administration.

[3] = system: normotensive Dutch Belted rabbits; experiment: Eye irritation by extent of eyelid closure after topical eyedrop; type: in vivo, rabbit; conditions: single dose 25 μl of 0.5%, 0.2%, 0.05% and 0.01% solution
Experimental: as §1

[4] = system: New-Zealand albino rabbits; experiment: IOP after single dose in rabbits with water-increased IOP; type: in vivo, rabbit; conditions: two drops of 5% solution per eye, one hour before 200 ml oral water
Experimental: A study versus placebo was carried out in 20 New-Zealand albino rabbits to evaluate the effects of CHF 1035 after single administration. Basal intraocular pressure (IOP) was measured in anaesthetized rabbits in both eyes. Each eye received two drops of physiological solution containing 5% of the drug. Control animals received only physiological solution. After one hour, the animals were administered by oral route with a total amount of 200 ml of distilled water. IOP increased within about one hour and normalized after about 3 hours. As no differences in IOP were observed between the two eyes, the respective tonometric curves were superimposed. IOP measurements were carried out by using a Goldman tonometer and were repeated one hour after the administration of water.
Values are expressed as mean (SE^132 1.6-2.7). The total number of eyes per group is in brackets.

[5] = topical single dose, normotensive rabbits

## CNC1CCc2c(ccc(OC(=O)C(C)C)c2OC(=O)C(C)C)C1 (racemic) [CHF 1035, (±)-(R,S)-5,6-diisobutyryloxy-2-methylaminotetralin]
[1]
  pKa: 9.4
[2]; normotensive rabbits
  duration of action compared with brimonidine: longer duration of action than brimonidine
  effectiveness in decreasing IOP compared with brimonidine: more effective in decreasing IOP than brimonidine
  onset of action: late onset of action
[2]; [5]
  IOP decrease in the untreated eye: no significant IOP decrease is observed in the untreated eye
  effect on IOP in the treated eye: decreases significantly the IOP in the treated eye
[2]; 0.01% w/v, 0 min
  IOP changes (mean ± SEM) in the treated eye: 0.0 ± 0.0 mmHg
  IOP changes (mean ± SEM) in the untreated eye: 0.0 ± 0.0 mmHg
[2]; 0.01% w/v, 30 min
  IOP changes (mean ± SEM) in the treated eye: −1.9 ± 0.9 mmHg
  IOP changes (mean ± SEM) in the untreated eye: −1.0 ± 1.1 mmHg
[2]; 0.01% w/v, 60 min
  IOP changes (mean ± SEM) in the treated eye: −4.2 ± 1.1 mmHg
  IOP changes (mean ± SEM) in the untreated eye: −1.9 ± 1.2 mmHg
[2]; 0.01% w/v, 120 min
  IOP changes (mean ± SEM) in the treated eye: −5.3 ± 0.7 mmHg
  IOP changes (mean ± SEM) in the untreated eye: −1.6 ± 1.0 mmHg
[2]; 0.01% w/v, 180 min
  IOP changes (mean ± SEM) in the treated eye: −5.0 ± 1.0 mmHg
  IOP changes (mean ± SEM) in the untreated eye: −0.5 ± 0.7 mmHg
[2]; 0.01% w/v, 240 min
  IOP changes (mean ± SEM) in the treated eye: −4.5 ± 1.3 mmHg
  IOP changes (mean ± SEM) in the untreated eye: −1.4 ± 0.7 mmHg
[2]; 0.01% w/v, 300 min
  IOP changes (mean ± SEM) in the treated eye: −4.3 ± 0.9 mmHg
  IOP changes (mean ± SEM) in the untreated eye: −1.7 ± 0.4 mmHg
[2]; 0.01% w/v, 360 min
  IOP changes (mean ± SEM) in the treated eye: −2.6 ± 0.6 mmHg
  IOP changes (mean ± SEM) in the untreated eye: 0.0 ± 0.6 mmHg
[2]; 0.01% w/v, 420 min
  IOP changes (mean ± SEM) in the treated eye: −1.3 ± 0.8 mmHg
  IOP changes (mean ± SEM) in the untreated eye: 0.4 ± 0.7 mmHg
[2]; 0.05% w/v, 0 min
  IOP changes (mean ± SEM) in the treated eye: 0.0 ± 0.0 mmHg
  IOP changes (mean ± SEM) in the untreated eye: 0.0 ± 0.0 mmHg
[2]; 0.05% w/v, 30 min
  IOP changes (mean ± SEM) in the treated eye: −0.4 ± 0.5 mmHg
  IOP changes (mean ± SEM) in the untreated eye: 0.0 ± 0.6 mmHg
[2]; 0.05% w/v, 60 min
  IOP changes (mean ± SEM) in the treated eye: −3.3 ± 0.4 mmHg
  IOP changes (mean ± SEM) in the untreated eye: 0.1 ± 0.7 mmHg
[2]; 0.05% w/v, 120 min
  IOP changes (mean ± SEM) in the treated eye: −6.5 ± 0.9 mmHg
  IOP changes (mean ± SEM) in the untreated eye: −1.5 ± 0.8 mmHg
[2]; 0.05% w/v, 180 min
  IOP changes (mean ± SEM) in the treated eye: −6.3 ± 0.9 mmHg
  IOP changes (mean ± SEM) in the untreated eye: −0.4 ± 1.0 mmHg
[2]; 0.05% w/v, 240 min
  IOP changes (mean ± SEM) in the treated eye: −6.7 ± 0.8 mmHg
  IOP changes (mean ± SEM) in the untreated eye: −1.0 ± 0.4 mmHg
[2]; 0.05% w/v, 300 min
  IOP changes (mean ± SEM) in the treated eye: −6.4 ± 0.8 mmHg
  IOP changes (mean ± SEM) in the untreated eye: −1.9 ± 0.9 mmHg
[2]; 0.05% w/v, 360 min
  IOP changes (mean ± SEM) in the treated eye: −5.5 ± 0.7 mmHg
  IOP changes (mean ± SEM) in the untreated eye: −0.6 ± 1.2 mmHg
[2]; 0.05% w/v, 420 min
  IOP changes (mean ± SEM) in the treated eye: −4.3 ± 0.5 mmHg
  IOP changes (mean ± SEM) in the untreated eye: 0.3 ± 0.7 mmHg
[2]; 0.2% w/v, 0 min
  IOP changes (mean ± SEM) in the treated eye: 0.0 ± 0.0 mmHg
  IOP changes (mean ± SEM) in the untreated eye: 0.0 ± 0.0 mmHg
[2]; 0.2% w/v, 30 min
  IOP changes (mean ± SEM) in the treated eye: 0.8 ± 0.9 mmHg
  IOP changes (mean ± SEM) in the untreated eye: 1.0 ± 0.8 mmHg
[2]; 0.2% w/v, 60 min
  IOP changes (mean ± SEM) in the treated eye: −0.4 ± 1.1 mmHg
  IOP changes (mean ± SEM) in the untreated eye: 0.5 ± 1.2 mmHg
[2]; 0.2% w/v, 120 min
  IOP changes (mean ± SEM) in the treated eye: −2.1 ± 0.7 mmHg
  IOP changes (mean ± SEM) in the untreated eye: 0.0 ± 0.9 mmHg
[2]; 0.2% w/v, 180 min
  IOP changes (mean ± SEM) in the treated eye: −6.0 ± 0.9 mmHg
  IOP changes (mean ± SEM) in the untreated eye: −1.5 ± 1.2 mmHg
[2]; 0.2% w/v, 240 min
  IOP changes (mean ± SEM) in the treated eye: −6.3 ± 1.0 mmHg
  IOP changes (mean ± SEM) in the untreated eye: −1.6 ± 1.1 mmHg
[2]; 0.2% w/v, 300 min
  IOP changes (mean ± SEM) in the treated eye: −7.6 ± 1.5 mmHg
  IOP changes (mean ± SEM) in the untreated eye: −1.1 ± 1.1 mmHg
[2]; 0.2% w/v, 360 min
  IOP changes (mean ± SEM) in the treated eye: −6.9 ± 1.0 mmHg
  IOP changes (mean ± SEM) in the untreated eye: −0.7 ± 1.0 mmHg
[2]; 0.2% w/v, 420 min
  IOP changes (mean ± SEM) in the treated eye: −5.7 ± 1.1 mmHg
  IOP changes (mean ± SEM) in the untreated eye: 0.0 ± 0.8 mmHg
[2]; 0.5% w/v, 0 min
  IOP changes (mean ± SEM) in the treated eye: 0.0 ± 0.0 mmHg
  IOP changes (mean ± SEM) in the untreated eye: 0.0 ± 0.0 mmHg
[2]; 0.5% w/v, 30 min
  IOP changes (mean ± SEM) in the treated eye: 1.8 ± 0.6 mmHg
  IOP changes (mean ± SEM) in the untreated eye: 2.9 ± 0.8 mmHg
[2]; 0.5% w/v, 60 min
  IOP changes (mean ± SEM) in the treated eye: 1.2 ± 0.7 mmHg
  IOP changes (mean ± SEM) in the untreated eye: 2.4 ± 0.7 mmHg
[2]; 0.5% w/v, 120 min
  IOP changes (mean ± SEM) in the treated eye: 0.1 ± 0.7 mmHg
  IOP changes (mean ± SEM) in the untreated eye: 1.4 ± 0.4 mmHg
[2]; 0.5% w/v, 180 min
  IOP changes (mean ± SEM) in the treated eye: −5.0 ± 1.2 mmHg
  IOP changes (mean ± SEM) in the untreated eye: 0.0 ± 0.5 mmHg
[2]; 0.5% w/v, 240 min
  IOP changes (mean ± SEM) in the treated eye: −5.6 ± 0.6 mmHg
  IOP changes (mean ± SEM) in the untreated eye: −0.2 ± 0.7 mmHg
[2]; 0.5% w/v, 300 min
  IOP changes (mean ± SEM) in the treated eye: −7.9 ± 0.9 mmHg
  IOP changes (mean ± SEM) in the untreated eye: −0.9 ± 0.4 mmHg
[2]; 0.5% w/v, 360 min
  IOP changes (mean ± SEM) in the treated eye: −6.9 ± 0.8 mmHg
  IOP changes (mean ± SEM) in the untreated eye: −0.7 ± 0.6 mmHg
[2]; 0.5% w/v, 420 min
  IOP changes (mean ± SEM) in the treated eye: −7.0 ± 0.8 mmHg
  IOP changes (mean ± SEM) in the untreated eye: −0.2 ± 0.3 mmHg
[2]; 1.0% w/v, 0 min
  IOP changes (mean ± SEM) in the treated eye: 0.0 ± 0.0 mmHg
  IOP changes (mean ± SEM) in the untreated eye: 0.0 ± 0.0 mmHg
[2]; 1.0% w/v, 30 min
  IOP changes (mean ± SEM) in the treated eye: 1.3 ± 0.9 mmHg
  IOP changes (mean ± SEM) in the untreated eye: 2.2 ± 0.9 mmHg
[2]; 1.0% w/v, 60 min
  IOP changes (mean ± SEM) in the treated eye: 0.4 ± 1.0 mmHg
  IOP changes (mean ± SEM) in the untreated eye: 1.2 ± 1.2 mmHg
[2]; 1.0% w/v, 120 min
  IOP changes (mean ± SEM) in the treated eye: 0.1 ± 0.9 mmHg
  IOP changes (mean ± SEM) in the untreated eye: 1.0 ± 0.8 mmHg
[2]; 1.0% w/v, 180 min
  IOP changes (mean ± SEM) in the treated eye: −3.2 ± 1.8 mmHg
  IOP changes (mean ± SEM) in the untreated eye: −2.5 ± 1.3 mmHg
[2]; 1.0% w/v, 240 min
  IOP changes (mean ± SEM) in the treated eye: −4.9 ± 1.5 mmHg
  IOP changes (mean ± SEM) in the untreated eye: −1.8 ± 0.6 mmHg
[2]; 1.0% w/v, 300 min
  IOP changes (mean ± SEM) in the treated eye: −5.8 ± 1.6 mmHg
  IOP changes (mean ± SEM) in the untreated eye: −0.7 ± 0.8 mmHg
[2]; 1.0% w/v, 360 min
  IOP changes (mean ± SEM) in the treated eye: −6.6 ± 1.6 mmHg
  IOP changes (mean ± SEM) in the untreated eye: −0.2 ± 1.1 mmHg
[2]; 1.0% w/v, 420 min
  IOP changes (mean ± SEM) in the treated eye: −5.3 ± 1.5 mmHg
  IOP changes (mean ± SEM) in the untreated eye: −0.9 ± 1.0 mmHg
[3]
  eye irritation (eyelid closure): no eyelid closure was observed
[4]
  IOP after water loading versus control animals: IOP value significantly lower than control animals
